Source: patent US20100160391A1, “Substituted Aminopyridines as Fluorescent Reporters for Amide Hydrolases” (priority 2006, published 2010)

Assays:
[1] = Comparison of aqueous solubility of substrates (absorbance at 800 nm); format: physicochemical; settings: 0.1 M phosphate buffer (pH 8.0), 1% ethanol, 37° C.
Description: Comparison of aqueous solubility of substrates. The aqueous solubility of the aminopyridine derivatives (e.g., 13, 14) and the 7-aminocoumarin derivative (e.g., 15) was determined in clear 96-well styrene flat-bottom microtiter plates with a Spectra Max M2 spectrophotometer. Different concentrations of the substrates (13, 14 and 15; final concentration: 0.39, 0.78, 1.56, 3.13, 6.25, 12.5, 25, 50, 100, or 200 μM) in 200 μl 0.1 M sodium phosphate buffer (1% ethanol; pH 8.0) were used and the absorbance was recorded at a wavelength of 800 nm at 37° C. The measurements were performed in three replicates for each concentration.

[2] = target: T1, fatty acid amide hydrolase (FAAH) (Homo sapiens, UniProt O00519); test: Kinetic study of FAAH toward substrates; format: biochemical
T1 construct: made in house; host or cells: Trichoplusia ni High Five cells infected with recombinant baculovirus Ac-hFAAH; microsomal fraction
T1 sequence (O00519 1-579): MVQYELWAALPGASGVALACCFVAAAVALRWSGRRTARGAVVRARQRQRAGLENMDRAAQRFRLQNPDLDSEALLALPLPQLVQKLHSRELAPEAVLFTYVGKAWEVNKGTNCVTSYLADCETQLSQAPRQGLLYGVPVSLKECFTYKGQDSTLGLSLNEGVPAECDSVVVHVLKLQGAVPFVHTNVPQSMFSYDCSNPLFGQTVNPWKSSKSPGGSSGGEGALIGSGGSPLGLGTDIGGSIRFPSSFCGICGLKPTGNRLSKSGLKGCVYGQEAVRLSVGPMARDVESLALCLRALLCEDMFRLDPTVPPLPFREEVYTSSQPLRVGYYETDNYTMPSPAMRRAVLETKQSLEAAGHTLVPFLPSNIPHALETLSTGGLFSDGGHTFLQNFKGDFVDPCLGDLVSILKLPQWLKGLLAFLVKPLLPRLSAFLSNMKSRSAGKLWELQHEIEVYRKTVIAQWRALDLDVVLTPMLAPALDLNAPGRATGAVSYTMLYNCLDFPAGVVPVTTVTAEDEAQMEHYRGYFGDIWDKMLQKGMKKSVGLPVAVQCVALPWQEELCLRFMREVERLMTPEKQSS
Description: Preparation of recombinant human FAAH. Transgenic expression of the human FAAH in a baculovirus system was performed by following the method described in Nishi et al., Arch. Biochem. Biophys., 445:115-123 (2006). The cDNA encoding human FAAH (GenBank Accession No. NM_001441) was amplified by PCR using a human liver cDNA library (Invitrogen; Carlsbad, Calif.) as a template. The primer pair was 5′-[…]-3′ and 5′-[…]-3′. BglII and EcoRI endonuclease sites (underlined) were incorporated just upstream of the start codon and downstream of the stop codon of the coding sequence of FAAH, respectively. The PCR products were cloned into a pCR2.1 vector (Invitrogen) and the nucleotide sequence was verified by DNA sequencing. The cDNA fragments were then excised and directionally ligated to the BglII and EcoRI sites of the baculovirus transfer vector pAcUW21 (Lopez-Ferber et al., Baculovirus transfer vectors, in “Baculovirus Expression Protocols,” Richardson (Ed.), pp 25-63, Humana Press, Totowa, N.J., 1995). Recombinant baculoviruses harboring the human FAAH gene, Ac-hFAAH, were generated by co-transfection of Spodoptera frugiperda-derived Sf21 cells with the recombinant transfer vector plasmid and Bsu36I-cleaved BacPAK6 viral DNA (Clontech Laboratories; Mountain View, Calif.) as described in O'Reilly et al., Baculovirus Expression Vectors: A Laboratory Manual, Oxford University Press, New York, 1992. Trichoplusia ni-derived High Five cells (1×10^6 cells/ml) were inoculated with a high titer of Ac-hFAAH. At 72 hours post-infection, the infected cells were harvested by centrifugation at 2,000×g for 20 min at 4° C. and suspended in 50 mM Tris-HCl (pH 8.0) containing 150 mM NaCl, 1 mM EDTA, 1 μM pepstatin, 100 μM leupeptin, and 0.1 mg/ml aprotinin. The cell suspension was then homogenized using a Polytron homogenizer and centrifuged at 10,000×g for 20 min at 4° C. The microsomal fraction was collected by ultracentrifugation of the supernatant at 100,000×g for 60 min at 4° C. The pellet was resuspended in 20 mM Tris-HCl (pH 8.0) containing 10% (w/v) glycerol and 1% (w/v) Triton-X 100 and stored at −80° C. until use.
Kinetic study. The kinetic assays were also performed as described above for the sensitivity assay. Briefly, a total volume of 201 μl contained 0.1 M sodium phosphate buffer (pH 8.0) (190 μl) with 1% glycerol and 0.1% Triton-X 100, protein solution (10 μl), and substrate solution (1 μl). The protein content was 0.67 μg per well (201 μl). The concentration of substrate (13) in DMSO was 200, 100, 50, 25, 12.5, 6.25, 3.13, 1.56, or 0.78 μM. Similarly, the concentration of substrate (17) in DMSO was 100, 50, 25, 12.5, 6.25, 3.13, 1.56, 0.78, or 0.39 μM. Four replicates were applied for each concentration. Reported kinetic data (km and Vmax) were analyzed by the SigmaPlot Enzyme Kinetics software (2001) using the Michaelis-Menten equation for all concentrations.

[3] = pH 8.0, 37° C., 0.67 μg protein per well, Michaelis-Menten

**Q.** With `CCCCCCCC(=O)Nc1ccc(OC)nc1` [Compound 13, N-(6-methoxypyridin-3-yl) octanamide] as the molecule, how does the “aqueous solubility compared with coumarin substrate (15)” value [1] read?
**A.** much higher solubility

**Q.** What about the Selectivity ratio ([2]; Vmax/Km of substrate over that of oleamide (5.5 × 10^−2)) of the same molecule?
**A.** 74.5

**Q.** What about the Km [2, 3] of the same molecule?
**A.** 74.9 µM

**Q.** What about the Vmax [2, 3] of the same molecule?
**A.** 305 nmol/min/mg

**Q.** What about the “difference in Vmax between (13) and (17)” value ([2]; saturating substrate concentration) of the same molecule?
**A.** 8 fold
